# Measured values published in patent US20230203058A1, “MACROCYCLIC DIAMINE DERIVATIVES AS ENT INHIBITORS FOR THE TREATMENT OF CANCERS, AND COMBINATION THEREOF WITH ADENOSINE RECEPTOR ANTAGONISTS” (ITEOS BELGIUM SA, priority 2020, published 2023).
# Target: T1, human ENT1 (Homo sapiens, UniProt Q99808)
# T1 sequence (Q99808 1-456): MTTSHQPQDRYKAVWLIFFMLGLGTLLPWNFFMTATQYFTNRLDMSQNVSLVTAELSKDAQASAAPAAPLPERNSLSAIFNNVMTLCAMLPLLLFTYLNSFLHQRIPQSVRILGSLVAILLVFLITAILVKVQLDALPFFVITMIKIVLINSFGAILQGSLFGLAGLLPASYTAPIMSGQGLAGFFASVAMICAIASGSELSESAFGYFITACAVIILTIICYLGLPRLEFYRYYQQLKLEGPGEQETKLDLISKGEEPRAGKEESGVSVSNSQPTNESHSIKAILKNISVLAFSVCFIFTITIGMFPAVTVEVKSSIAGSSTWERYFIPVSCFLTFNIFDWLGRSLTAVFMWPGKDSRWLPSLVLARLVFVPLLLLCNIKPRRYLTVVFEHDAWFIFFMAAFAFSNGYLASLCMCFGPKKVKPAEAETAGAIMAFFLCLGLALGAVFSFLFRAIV
# Assay: ENT1 binding assay (competition with Sahenta-DY647 on JAR cells)
# Parameters: JAR cells expressing ENT1 were bought from ATCC® (HTB-144TM); host or cells: JAR cells (human choriocarcinoma line; whole cells)
# Settings: competition with Sahenta-DY647 100 nM, 4° C.
# Protocol: The present assay aims at showing that the compounds of the present invention can bind to human ENT1. The principle of the assay is a competition between the compounds of this invention and Sahenta-DY647, an ENT1 inhibitor that emits fluorescence (Ex = 630 nm, Em = 670 nm). By measuring the fluorescence at the end of the assay we could assess the binding potency of the compounds of the present invention.
# JAR cells expressing ENT1 were bought from ATCC® (HTB-144TM). Cells were cultured in RPMI 1640 medium (LONZA®, #BE12-702F/U1) supplemented with 10% FBS (GIBCO®, #10270-106), 10 mM Hepes (LONZA®, #BE17-737E), 1 mM Sodium Pyruvate (LONZA®, #BE13-115E) and 2% Penicillin/Streptomycin (LONZA®, #DE17-603E) at 37° C. and 5% CO2. The assay was conducted on the following buffer: HBSS (LONZA®, #LO-527F) supplemented with 10 mM Hepes (LONZA®, #BE17-737E) and 0.1% BSA (Miltenyi®, #130-091-376) on the day of the assay. JAR cells were resuspended in the described buffer. Compounds of the present invention and Sahenta-DY647 were diluted 200X in the described buffer.
# A total of 50000 cells were pre-incubated for 30 min at 4° C. with the compounds of the present invention before adding the corresponded IC90 of Sahenta-DY647 (100 nM) and incubate once more for 30 min at 4° C. The total volume of the reaction was 100 µL (50 µL of cells, 25 µL of the compounds of the present invention and 25 µL of Sahenta-DY647) in a 96 well plate, U-bottom (Greiner®, #650-180). The plates were washed 2X by centrifugation (4 min, 400 rcf at 4° C.) in the same buffer. Cells were resuspended in 70 µL of the buffer and 50 µL was transferred to a Black 384 Optiplate (PerkinElmer®, #6007279). Fluorescence (Ex = 630 nm, Em = 670 nm) was acquired on a Spectramax i3x (Molecular Devices®).
row,Structure (SMILES),IC50
1,"COc1cc2cc(c1OC)OCCCC(OC(=O)c1cccc(OC(F)F)c1)CCN1CCCN(CCCOC2=O)CC1 (centres unmarked) [Compound 75, 74,75-dimethoxy-6-oxo-5,8-dioxa-1(1,4)-diazepana-7(1,3)-benzenacyclotetradecaphane-12-yl 3-(difluoromethoxy)benzoate]",20 to 500 nM
2,"COc1cc2cc(c1OC)OCCCC(OC(=O)c1cc(Cl)cc(Cl)c1)CCN1CCCN(CCCOC2=O)CC1 (centres unmarked) [Compound 76, 74,75-dimethoxy-6-oxo-5,8-dioxa-1(1,4)-diazepana-7(1,3)-benzenacyclotetradecaphane-12-yl 3,5-dichlorobenzoate]",20 to 500 nM
3,"COc1cc2cc(c1OC)OCCCC(OC(=O)c1cccc(Cl)c1Cl)CCN1CCCN(CCCOC2=O)CC1 (centres unmarked) [Compound 78, 74,75-dimethoxy-6-oxo-5,8-dioxa-1(1,4)-diazepana-7(1,3)-benzenacyclotetradecaphane-12-yl 2,3-dichlorobenzoate]",1 to 20 nM
4,"COc1cc2cc(c1OC)OCCCC(OC(=O)c1c(F)ccc(C)c1Cl)CCN1CCCN(CCCOC2=O)CC1 (centres unmarked) [Compound 79, 74,75-dimethoxy-6-oxo-5,8-dioxa-1(1,4)-diazepana-7(1,3)-benzenacyclotetradecaphane-12-yl 2-chloro-6-fluoro-3-methylbenzoate]",1 to 20 nM
5,"COc1cc2cc(c1OC)OCCCC(OC(=O)c1ccc(F)c(C(F)(F)F)c1)CCN1CCCN(CCCOC2=O)CC1 (centres unmarked) [Compound 81, 74,75-dimethoxy-6-oxo-5,8-dioxa-1(1,4)-diazepana-7(1,3)-benzenacyclotetradecaphane-12-yl 4-fluoro-3-(trifluoromethyl)benzoate]",1 to 20 nM
6,"COc1cc2cc(c1OC)OCCCC(OC(=O)c1ccc(C#N)c(F)c1)CCN1CCCN(CCCOC2=O)CC1 (centres unmarked) [Compound 82, 74,75-dimethoxy-6-oxo-5,8-dioxa-1(1,4)-diazepana-7(1,3)-benzenacyclotetradecaphane-12-yl 4-cyano-3-fluorobenzoate]",1 to 20 nM
7,"COc1cc2cc(c1OC)OCCCC(OC(=O)c1ccc(C(F)(F)F)cc1)CCN1CCCN(CCCOC2=O)CC1 (centres unmarked) [Compound 83, 74,75-dimethoxy-6-oxo-5,8-dioxa-1(1,4)-diazepana-7(1,3)-benzenacyclotetradecaphane-12-yl 4-(trifluoromethyl)benzoate]",1 to 20 nM
8,"COc1cc2cc(c1OC)OCCCC(OC(=O)c1cc(F)cc(F)c1)CCN1CCCN(CCCOC2=O)CC1 (centres unmarked) [Compound 84, 74,75-dimethoxy-6-oxo-5,8-dioxa-1(1,4)-diazepana-7(1,3)-benzenacyclotetradecaphane-12-yl 3,5-difluorobenzoate]",1 to 20 nM
9,"COc1cc2cc(c1OC)OCCCC(OC(=O)c1ccc(F)c(F)c1)CCN1CCCN(CCCOC2=O)CC1 (centres unmarked) [Compound 85, 74,75-dimethoxy-6-oxo-5,8-dioxa-1(1,4)-diazepana-7(1,3)-benzenacyclotetradecaphane-12-yl 3,4-difluorobenzoate]",1 to 20 nM
10,"COc1cc2cc(c1OC)OCCCC(OC(=O)c1ccc(F)c(C#N)c1)CCN1CCCN(CCCOC2=O)CC1 (centres unmarked) [Compound 86, 74,75-dimethoxy-6-oxo-5,8-dioxa-1(1,4)-diazepana-7(1,3)-benzenacyclotetradecaphane-12-yl 3-cyano-4-fluorobenzoate]",1 to 20 nM
11,"COc1cc2cc(c1OC)OCCCC(OC(=O)c1ccc(C#N)cc1)CCN1CCCN(CCCOC2=O)CC1 (centres unmarked) [Compound 87, 74,75-dimethoxy-6-oxo-5,8-dioxa-1(1,4)-diazepana-7(1,3)-benzenacyclotetradecaphane-12-yl 4-cyanobenzoate]",1 to 20 nM
12,"COc1cc2cc(c1OC)OCCCC(OC(=O)c1ccc3c(c1)ncn3C)CCN1CCCN(CCCOC2=O)CC1 (centres unmarked) [Compound 89, 74,75-dimethoxy-6-oxo-5,8-dioxa-1(1,4)-diazepana-7(1,3)-benzenacyclotetradecaphane-12-yl 1-methyl-1 H-benzo [d] imidazole-5-carboxylate]",1 to 20 nM
13,"COc1cc2cc(c1OC)OCCCC(OC(=O)c1ccc(-c3cnco3)cc1)CCN1CCCN(CCCOC2=O)CC1 (centres unmarked) [Compound 90, 74,75-dimethoxy-6-oxo-5,8-dioxa-1(1,4)-diazepana-7(1,3)-benzenacyclotetradecaphane-12-yl 4-(oxazol-5-yl)benzoate]",1 to 20 nM
14,"COc1cc2cc(c1OC)OCCCC(OC(=O)c1cc(Cl)c(Cl)cc1F)CCN1CCCN(CCCOC2=O)CC1 (centres unmarked) [Compound 91, 74,75-dimethoxy-6-oxo-5,8-dioxa-1(1,4)-diazepana-7(1,3)-benzenacyclotetradecaphane-12-yl 4,5-dichloro-2-fluorobenzoate]",1 to 20 nM
15,"CCOc1cc(C(=O)OC2CCCOc3cc(cc(OC)c3OC)C(=O)OCCCN3CCCN(CC2)CC3)cc(OCC)c1OCC (centres unmarked) [Compound 92, 74,75-dimethoxy-6-oxo-5,8-dioxa-1(1,4)-diazepana-7(1,3)-benzenacyclotetradecaphane-12-yl 3,4,5-triethoxybenzoate]",1 to 20 nM
16,"COc1cc2cc(c1OC)OCCCC(OC(=O)CCC#N)CCN1CCCN(CCCOC2=O)CC1 (centres unmarked) [Compound 95, 74,75-dimethoxy-6-oxo-5,8-dioxa-1(1,4)-diazepana-7(1,3)-benzenacyclotetradecaphane-12-yl 3-cyanopropanoate]",1 to 20 nM
17,"COc1cc2cc(c1OC)OCCCC(OC(=O)CCn1cnnn1)CCN1CCCN(CCCOC2=O)CC1 (centres unmarked) [Compound 98, 74,75-dimethoxy-6-oxo-5,8-dioxa-1(1,4)-diazepana-7(1,3)-benzenacyclotetradecaphane-12-yl 3-(1 H-tetrazol-1-yl)propanoate]",1 to 20 nM
18,"CNC(=O)CCC(=O)OC1CCCOc2cc(cc(OC)c2OC)C(=O)OCCCN2CCCN(CC1)CC2 (centres unmarked) [Compound 101, 74,75-dimethoxy-6-oxo-5,8-dioxa-1(1,4)-diazepana-7(1,3)-benzenacyclotetradecaphane-12-yl 4-(methylamino)-4-oxobutanoate]",1 to 20 nM
19,"COc1cc2cc(c1OC)OCCCC(OC(=O)CCn1cncn1)CCN1CCCN(CCCOC2=O)CC1 (centres unmarked) [Compound 102, 74,75-dimethoxy-6-oxo-5,8-dioxa-1 (1,4)-diazepana-7(1,3)-benzenacyclotetradecaphane-12-yl 3-(1H-1,2,4-triazol-1-yl)propanoate]",1 to 20 nM
20,"COc1cc2cc(c1OC)OCCCC(OC(=O)CCC(=O)N1CCOCC1)CCN1CCCN(CCCOC2=O)CC1 (centres unmarked) [Compound 103, 74,75-dimethoxy-6-oxo-5,8-dioxa-1 (1,4)-diazepana-7(1,3)-benzenacyclotetradecaphane-12-yl 4-morpholino-4-oxobutanoate]",1 to 20 nM
21,"COc1cc2cc(c1OC)OCCCC(OC(=O)CCOc1ccc(F)cc1)CCN1CCCN(CCCOC2=O)CC1 (centres unmarked) [Compound 104, 74,75-dimethoxy-6-oxo-5,8-dioxa-1(1,4)-diazepana-7(1,3)-benzenacyclotetradecaphane-12-yl 3-(4-fluorophenoxy)propanoate]",1 to 20 nM
22,"COc1cc2cc(c1OC)OCCCC(OC(=O)C1CCC(F)(F)CC1)CCN1CCCN(CCCOC2=O)CC1 (centres unmarked) [Compound 105, 74,75-dimethoxy-6-oxo-5,8-dioxa-1(1,4)-diazepana-7(1,3)-benzenacyclotetradecaphane-12-yl 4,4-difluorocyclohexane-1-carboxylate]",1 to 20 nM
23,"COc1cc2cc(c1OC)OCCCC(OC(=O)C1CCC(C(F)(F)F)CC1)CCN1CCCN(CCCOC2=O)CC1 (centres unmarked) [Compound 106, 74,75-dimethoxy-6-oxo-5,8-dioxa-1(1,4)-diazepana-7(1,3)-benzenacyclotetradecaphane-12-yl 4-(trifluoromethyl)cyclohexane-1-carboxylate]",1 to 20 nM
